The source of these data is patent publication US7276371B2, “Stimulation of hematopoietic cells in vitro” (Point Therapeutics, Inc., priority 1997, dated 2007).

One test relates to bone marrow cells. As to the kind of experiment: Bone marrow cell growth stimulation, 4 day culture without added cytokines, cell count. Particulars: 10,000 bone marrow cells per well at start, IMDM, no growth factors, control 10,000 cells. It is filed as cell-based. How it is done: Freshly isolated bone marrow cells were isolated and 10,000 cells per well were incubated in 96 microtiter plates in CellGro Iscove's Modified Dulbecco's Medium (IMDM) and with or without (control) the indicated concentrations of Pro-boroPro for 4 days. At the end of this incubation period, the cells were counted under the microscope. The cultures without Pro-boroPro contained 10,000 cells at the end of 4 days. The cultures containing Pro-boroPro had 53,000 cells at 10^−6M, 38,000 cells at 10^−8M and 42,000 cells at 10^−10 M. The cultures containing a growth factor mix (GF) contained 82,000 cells. Growth factors were supplied in OPITEN® Giant Cell Tumor-conditioned medium (IGEN)
Cultures were set up as described in the legend to FIG. 1 except that Lys-boroPro and the homoconjugate were used, and incubated for 4 days.
• 1. Obtain bone marrow or umbilical cord blood in heparinized (green top) tube. Can be stored at room temperature until use within 48 hours. • 2. Mix marrow/blood 1:1 with phosphate-buffered saline, pH 7.4(PBS) that has been stored at 4° C. • 3. Carefully layer blood-PBS mixture on a 2× volume quantity of Histopaque (Sigma) that has been stored at 4° C. • 4. Centrifuge at 400 g×20 minutes at 37° C. • 5. Carefully collect cells at interface and wash ×2 in cold PBS. • 6. Count viable cells using trypan blue. • 7. Set up cells as 1 ml cultures in plastic culture tubes (or 96 well or 24 well microtiter plates) at 10^4 cells/ml in CellGro Iscove's Modified Dulbecco's medium (Meditech) containing kanamycin (5 ug/ml), desired concentration of Xaa-boroPro or other compound of the invention, and the absence or presence of Giant Cell Tumor-Conditioned Medium (GCT-CM, Origen) as source of growth factors. Xaa-boroPro or other compounds of the invention should be diluted to medium and added to culture only after cells are in culture tube. • 8. Cells are cultured at 37° C. in a moist air incubator containing 5% CO2. • 9. At desired time, an aliquot of cells are removed and counted. • 10. […]

Test [1] relates to Umbilical cord blood cells. As to the kind of experiment: Bulk umbilical cord blood, total cell counts after 4 day incubation. It is filed as cell-based. Particulars: control culture 0.2×10^6 cells. How it is done:
(§1) Umbilical cord blood cells were incubated under essentially the same conditions as described in the legend to FIG. 1, except that Val-boroPro was used as stimulant at the indicated concentrations. After 4 day incubation: • A: Bulk Umbilical Cord Blood; Total Cell Counts. Control culture: 0.2×10^6 cells; Growth factors 5×10^6 cells; Val-boroPro: 3×10^6 (10^−6M); 3×10^6 (10^−8M); 4×10^6 ([…]). • B: CD34+ isolated cells: CD34+ cells were isolated using CD34 mAb coupled beads for positive selection. Cell preparation contained 98% CD34+ cells. After 4 days of incubation the culture containing 10^−10M Val-boroPro contained 8.5×10^6 cells, compared to 0.6×10^6 cells in the control and 4×10^6 cells in the incubation with growth factors.
(§2) • 1. Obtain bone marrow or umbilical cord blood in heparinized (green top) tube. Can be stored at room temperature until use within 48 hours. • 2. Mix marrow/blood 1:1 with phosphate-buffered saline, pH 7.4(PBS) that has been stored at 4° C. • 3. Carefully layer blood-PBS mixture on a 2× volume quantity of Histopaque (Sigma) that has been stored at 4° C. • 4. Centrifuge at 400 g×20 minutes at 37° C. • 5. Carefully collect cells at interface and wash ×2 in cold PBS. • 6. Count viable cells using trypan blue. • 7. Set up cells as 1 ml cultures in plastic culture tubes (or 96 well or 24 well microtiter plates) at 10^4 cells/ml in CellGro Iscove's Modified Dulbecco's medium (Meditech) containing kanamycin (5 ug/ml), desired concentration of Xaa-boroPro or other compound of the invention, and the absence or presence of Giant Cell Tumor-Conditioned Medium (GCT-CM, Origen) as source of growth factors. Xaa-boroPro or other compounds of the invention should be diluted to medium and added to culture only after cells are in culture tube. • 8. Cells are cultured at 37° C. in a moist air incubator containing 5% CO2. • 9. At desired time, an aliquot of cells are removed and counted. • 10. Counting can be performed under the microscope (direct) or by using the MTT assay (colorimetric assay).

For a further test, the system named is CD34+ isolated cells. As to the kind of experiment: CD34+ cells isolated from umbilical cord blood, 4 day culture: cell number and percent CD34+ remaining. It is filed as cell-based, human. To be noted: 10^−10M; isolated CD34+ cells (98% CD34+); control 0.6×10^6 cells. The procedure:
as §1
C: Percent of CD34+ cells remaining after 4 day culture: Cultures incubated with Val-boroPro contained between 10 and 15% of CD34+ cells after 4 day culture. Cultures incubated with Growth Factors had only 4% of CD34+ cells remaining (panel b).
• 1. Obtain bone marrow or umbilical cord blood in heparinized (green top) tube. Can be stored at room temperature until use within 48 hours. • 2. […] Carefully layer blood-PBS mixture on a 2× volume quantity of Histopaque (Sigma) that has been stored at 4° C. • 4. […] At desired time, an aliquot of cells are removed and counted. • 10. […]

The next test concerns Isolated CD34+ cells. The test is described as follows: Isolated CD34+ cells (98% purity) of bone marrow, 4 day culture: growth stimulation and percent CD34+ remaining. It is filed as cell-based, human. How it is done:
as §2

In the case of `O=C(C1CCCN1)N1CCCC1B(O)O` (stereo not drawn) [Pro-boroPro], the “number of cells at the end of 4 days” value in the test with bone marrow cells (10^−6M) is reported as 53,000 cells; with bone marrow cells (10^−8M), 38,000 cells; with bone marrow cells (10^−10 M) it was 42,000 cells.

For the compound `CC(C)[C@H](N)C(=O)N1CCC[C@H]1B(O)O` [Val-boroPro], the “Total Cell Counts after 4 day incubation” value in test [1] (10^−6M) is listed as 3×10^6; in test [1] (10^−8M), 3×10^6; in test [1] (10^−M (so in the source)), 4×10^6. Besides, in the test with CD34+ isolated cells, the “number of cells after 4 days of incubation” value is 8.5×10^6 cells. Moreover, in the test on Isolated CD34+ cells (4 day culture, concentration not given), the “increase in stimulation of cellular growth over that in control cultures” value was “up to 20 fold”. Moreover, in the test with Isolated CD34+ cells (isolated bone marrow CD34+ cells, control 63%), the “Percent of CD34+ cells remaining in culture after a 4 day incubation period” value came out at 43%.
